In brackets after ≈: the same amount, converted by molar mass.
Experiments:
[1] = test system: S. epidermidis ATCC 12228; test: MIC, microdilution method (9.1); assay type: cell-based, Staphylococcus epidermidis; settings: Staphylococcus epidermidis, ATCC12228, read after 18 h, read-out: MIC
Method: (§1) The microdilution method recommended by the Clinical and Laboratory Standard Institute [M07-A8, Vol. 29, No. 2] was used. The activity of indolic compounds was tested against 29 bacterial strains belonging to 17 different species and 12 different genera (Staphylococcus, Streptococcus, Enterococcus, Listeria, Bacillus, Haemophilus, Escherichia, Klebsiella, Enterobacter, Serratia, Pseudomonas, and Acinetobacter). Bacterial inocula were prepared in Mueller Hinton broth (MH2, bioMérieux, Marcy L'Etoile, France), supplemented with 10% sheep blood for fastidious species (i.e., Streptococcus pneumoniae and Haemophilus influenzae). They were dispensed in 96 well microtiter plates (5×10^5 CFU/ml of final inoculum). Indolic compounds were added to the wells as to obtain two-fold serial concentrations (0.50-128 mg/L of final concentrations). Plates were incubated at 37° C. in ambient air, or at 37° C. in 5% CO2 enriched atmosphere for fastidious species. […] Drug-free cultures served as growth controls. Cultures receiving gentamicin, ciprofloxacin or cefotaxime served as positive controls.

[2] = test system: S. epidermidis CIP 103627; test: MIC, microdilution method (9.1); assay type: cell-based, Staphylococcus epidermidis; settings: Staphylococcus epidermidis, CIP103627, read after 18 h, read-out: MIC
Method: as §1

S. epidermidis CIP 81.55 = test: MIC, microdilution method (9.1); assay type: cell-based, Staphylococcus epidermidis; settings: Staphylococcus epidermidis, CIP81, read after 18 h, read-out: MIC
Method: as §1

[3] = test system: HCT116 (human colon tumor); test: In vitro cytotoxicity; assay type: cell-based; settings: HCT-116, HCT116, from 100 μM to 0.005 μM in DMSO, duplicate
[4] = test system: Listeria innocua CIP 80.11; test: MIC, microdilution method (9.1); assay type: cell-based; settings: CIP80, 18 h, read-out: MIC
Method: as §1

[5] = test system: Enterobacter cloacae ATCC13047; test: MIC, microdilution method (9.1); assay type: cell-based; settings: 18 h
Method: as §1

[6] = test system: Bacillus subtilis CIP 5262; test: MIC, microdilution method (9.1); assay type: cell-based; settings: CIP5262, 18 h, read-out: MIC
Method: as §1

[7] = test system: Haemophilus influenzae ATCC 49766; test: MIC, microdilution method (9.1); assay type: cell-based; settings: ATCC49766; Haemophilus influenzae ATCC 49766; 10% sheep blood, 5% CO2; 18 h; read-out: MIC
Method: as §1

[8] = test system: Escherichia coli ATCC 25922; test: MIC, microdilution method (9.1); assay type: cell-based; settings: ATCC25922, 18 h
Method: as §1

[9] = test system: Klebsiella pneumoniae API ATCC 35657; test: MIC, microdilution method (9.1); assay type: cell-based; settings: ATCC35657, 18 h, read-out: MIC
Method: as §1

S. pneumoniae ATCC 49619 = test: MIC, microdilution method (9.1); assay type: cell-based; settings: Streptococcus pneumoniae, ATCC49619, 10% sheep blood, 5% CO2, 18 h
Method: as §1

[10] = test system: Serratia marcescens CIP 103551; test: MIC, microdilution method (9.1); assay type: cell-based; settings: CIP103551, 18 h
Method: as §1

[11] = test system: Acinetobacter baumanii ATCC 19606; test: MIC, microdilution method (9.1); assay type: cell-based; settings: Acinetobacter baumannii, ATCC19606, 18 h, read-out: MIC
Method: as §1

[12] = test system: Pseudomonas aeruginosa CIP 5933; test: MIC, microdilution method (9.1); assay type: cell-based; settings: CIP5933, 18 h, read-out: MIC
Method: as §1

[13] = test system: S. aureus CIP 65.25 (MRSA); test: MIC, microdilution method (9.1); assay type: cell-based, Staphylococcus aureus; settings: Staphylococcus aureus, read after 18 h, read-out: MIC
Method: as §1

S. aureus CIP 65.6 = test: MIC, microdilution method (9.1); assay type: cell-based, Staphylococcus aureus; settings: Staphylococcus aureus, CIP65, read after 18 h, read-out: MIC
Method: as §1

S. aureus ATCC 9144 = test: MIC, microdilution method (9.1); assay type: cell-based, Staphylococcus aureus; settings: Staphylococcus aureus, ATCC9144, read after 18 h, read-out: MIC
Method: as §1

S. aureus ATCC 25923 = test: MIC, microdilution method (9.1); assay type: cell-based, Staphylococcus aureus; settings: Staphylococcus aureus, ATCC25923, read after 18 h, read-out: MIC
Method: as §1

[14] = test system: S. aureus ATCC 33592 (MRSA); test: MIC, microdilution method (9.1); assay type: cell-based, Staphylococcus aureus; settings: Staphylococcus aureus, read after 18 h, read-out: MIC
Method: as §1

S. aureus CIP 103428 = test: MIC, microdilution method (9.1); assay type: cell-based, Staphylococcus aureus; settings: Staphylococcus aureus, CIP103428, read after 18 h, read-out: MIC
Method: as §1

S. aureus SA-1199B = test: MIC, microdilution method (9.1); assay type: cell-based, Staphylococcus aureus; settings: Staphylococcus aureus, SA1199B, 18 h
Method: as §1

[15] = test system: S. aureus ATCC 106414 (VISA); test: MIC, microdilution method (9.1); assay type: cell-based, Staphylococcus aureus; settings: Staphylococcus aureus, read after 18 h, read-out: MIC
Method: as §1

S. aureus ATCC 6538 = test: MIC, microdilution method (9.1); assay type: cell-based, Staphylococcus aureus; settings: Staphylococcus aureus, ATCC6538, read after 18 h, read-out: MIC
Method: as §1

S. aureus ATCC 29213 = test: MIC, microdilution method (9.1); assay type: cell-based, Staphylococcus aureus; settings: Staphylococcus aureus, ATCC29213, read after 18 h, read-out: MIC
Method: as §1

[16] = test system: MRC5 (human lung fibroblast); test: In vitro cytotoxicity; assay type: cell-based; settings: read-out: % of cellular growth inhibition; for inhibition at 10 µM: 10^−5 M; for inhibition at 1 µM: 10^−6 M
Method: (§2) In vitro cytotoxicity was assayed on three cell lines—KB (human mouth carcinoma), MCR5 (human lung fibroblast) and HCT116 (human colon tumor). Results are presented in table IV as % of cellular growth inhibition in presence of 10^−5 M and 10^−6 M of the tested bis-indolic derivatives.

[17] = test system: HCT116 (human colon tumor); test: In vitro cytotoxicity; assay type: cell-based; settings: read-out: % of cellular growth inhibition; for inhibition at 10 µM: HCT-116, 10^−5 M; for inhibition at 1 µM: HCT-116, 10^−6 M
Method: as §2

[18] = test system: KB (human mouth carcinoma); test: In vitro cytotoxicity; assay type: cell-based; settings: read-out: % of cellular growth inhibition; for inhibition at 10 µM: 10^−5 M; for inhibition at 1 µM: 10^−6 M
Method: as §2

[19] = test system: S. agalactiae (group B) ATCC 12400; test: MIC, microdilution method (9.1); assay type: cell-based, Streptococcus agalactiae; settings: Streptococcus agalactiae, ATCC12400, 18 h, read-out: MIC
Method: as §1

[20] = test system: S. pyogenes (group A) CIP 104226; test: MIC, microdilution method (9.1); assay type: cell-based, Streptococcus pyogenes; settings: Streptococcus pyogenes, CIP104226, 18 h, read-out: MIC
Method: as §1

E. faecium CIP 54.32 = test: MIC, microdilution method (9.1); assay type: cell-based, Enterococcus faecium; settings: Enterococcus faecium, CIP54, 18 h, read-out: MIC
Method: as §1

E. faecalis ATCC 29212 = test: MIC, microdilution method (9.1); assay type: cell-based, Enterococcus faecalis; settings: Enterococcus faecalis, ATCC29212, 18 h, read-out: MIC
Method: as §1

S. mitis CIP 103335 = test: MIC, microdilution method (9.1); assay type: cell-based, Streptococcus mitis; settings: Streptococcus mitis, CIP103335, 18 h, read-out: MIC
Method: as §1

S. pneumoniae ATCC 6303 = test: MIC, microdilution method (9.1); assay type: cell-based, Streptococcus pneumoniae; settings: Streptococcus pneumoniae, ATCC6303, 10% sheep blood, 5% CO2, 18 h, read-out: MIC
Method: as §1

Row | SMILES | MIC [1] [µg/mL] | MIC [2] [µg/mL] | MIC (S. epidermidis CIP 81.55) [µg/mL] | IC50 ([3]; first value) [µM] | IC50 ([3]; second value) [µM] | MIC [4] [µg/mL] | MIC [5] [µg/mL] | MIC [6] [µg/mL] | MIC [7] [µg/mL] | MIC [8] [µg/mL] | MIC [9] [µg/mL] | MIC (S. pneumoniae ATCC 49619) [µg/mL] | MIC [10] [µg/mL] | MIC [11] [µg/mL] | MIC [12] [µg/mL] | MIC [13] [µg/mL] | MIC (S. aureus CIP 65.6) [µg/mL] | MIC (S. aureus ATCC 9144) [µg/mL] | MIC (S. aureus ATCC 25923) [µg/mL] | MIC [14] [µg/mL] | further results
1 | CC(C)(C)OC(=O)NCC(NC(=O)c1c[nH]c2ccc(Br)cc12)c1c[nH]c2cc(Br)ccc12 (centres unmarked) [Compound 3h, tert-Butyl (2-(6-bromo-1H-indol-3-yl)-2-(5-bromo-1H-indolyl-3-carboxamido)ethyl)carbamate] | 1 (≈ 1.74 µM) | 2 (≈ 3.47 µM) | 1 (≈ 1.74 µM) | 3.33 | 4.11 | 32 (≈ 55.5 µM) | > 128 | 32 (≈ 55.5 µM) | 16 (≈ 27.8 µM) | > 128 | > 128 | 32 (≈ 55.5 µM) | > 128 | > 128 | > 128 | 1 (≈ 1.74 µM) | 2 (≈ 3.47 µM) | 1 (≈ 1.74 µM) | 1 (≈ 1.74 µM) | 2 (≈ 3.47 µM) | MIC (S. aureus CIP 103428): 2 µg/mL (≈ 3.47 µM); MIC (S. aureus SA-1199B): 2 µg/mL (≈ 3.47 µM); MIC [15]: 1 µg/mL (≈ 1.74 µM); MIC (S. aureus ATCC 6538): 1 µg/mL (≈ 1.74 µM); MIC (S. aureus ATCC 29213): 1 µg/mL (≈ 1.74 µM); inhibition at 10 µM [16]: 92 ± 1%; inhibition at 1 µM [16]: 0%; inhibition at 10 µM [17]: 100 ± 3%; inhibition at 1 µM [17]: 0%; inhibition at 10 µM [18]: 100 ± 1%; inhibition at 1 µM [18]: 0%; MIC [19]: 32 µg/mL (≈ 55.5 µM); MIC [20]: 32 µg/mL (≈ 55.5 µM); MIC (E. faecium CIP 54.32): 32 µg/mL (≈ 55.5 µM); MIC (E. faecalis ATCC 29212): > 128 µg/mL; MIC (S. mitis CIP 103335): 32 µg/mL (≈ 55.5 µM); MIC (S. pneumoniae ATCC 6303): 32 µg/mL (≈ 55.5 µM)
2 | CC(C)(C)OC(=O)NCC(NC(=O)c1c[nH]c2cc(Br)ccc12)c1c[nH]c2cc(Br)ccc12 (centres unmarked) [Compound 3i, tert-Butyl (2-(6-bromo-1H-indol-3-yl)-2-(6-bromo-1H-indolyl-3-carboxamido)ethyl)carbamate] | 2 (≈ 3.47 µM) | 2 (≈ 3.47 µM) | 2 (≈ 3.47 µM) | 1.9 | 2.1 | 32 (≈ 55.5 µM) | > 128 | 64 (≈ 111 µM) | 16 (≈ 27.8 µM) | > 128 | > 128 | 32 (≈ 55.5 µM) | > 128 | > 128 | > 128 | 1 (≈ 1.74 µM) | 1 (≈ 1.74 µM) | 2 (≈ 3.47 µM) | 2 (≈ 3.47 µM) | 1 (≈ 1.74 µM) | MIC (S. aureus CIP 103428): 1 µg/mL (≈ 1.74 µM); MIC (S. aureus SA-1199B): 1 µg/mL (≈ 1.74 µM); MIC [15]: 1 µg/mL (≈ 1.74 µM); MIC (S. aureus ATCC 6538): 2 µg/mL (≈ 3.47 µM); MIC (S. aureus ATCC 29213): 2 µg/mL (≈ 3.47 µM); inhibition at 10 µM [16]: 91 ± 7%; inhibition at 1 µM [16]: 10%; inhibition at 10 µM [17]: 91 ± 1%; inhibition at 1 µM [17]: 4%; inhibition at 10 µM [18]: 100 ± 1%; inhibition at 1 µM [18]: 3%; MIC [19]: 32 µg/mL (≈ 55.5 µM); MIC [20]: 32 µg/mL (≈ 55.5 µM); MIC (E. faecium CIP 54.32): 64 µg/mL (≈ 111 µM); MIC (E. faecalis ATCC 29212): > 128 µg/mL; MIC (S. mitis CIP 103335): 64 µg/mL (≈ 111 µM); MIC (S. pneumoniae ATCC 6303): 32 µg/mL (≈ 55.5 µM)
